What was measured:
[1] = background statement; cited from earlier work
[2] = diuretic properties compared to prazosin, acute (1-day) and chronic (5-day), conscious rats; type: in vivo, rat (female Sprague-Dawley); details: 3.0 mg/kg, by mouth
Procedure: In this Example the compound of Example I as the hydrochloride salt containing 3/4 mol of HCl instead of 1 mol HCl, i.e. […] Studies were conducted with conscious, 150-200 g, female Sprague-Dawley rats (Charles River Labs, Wilmington, MA) using the protocol of Hanson et al., Mineral Elect. Metab., 8: 314-324 (1982). Animals were maintained in stainless steel gang cages in temperature-controlled rooms with a 12-hour light, 12-hour dark cycle and provided Purina Rodent Lab Chow, with water ad libitum. All animals were fasted 18 hours prior to acute (first-day) dosing and water was withheld during the experiment. […] Groups of ten animals (2/cage) were studied. A controlled (non-drug) group comprised of an equal number of animals was included. Test drugs were suspended in 0.25% methocel-saline (0.9% NaCl) and administered orally by stomach intubation at the doses mentioned above. The oral fluid load volume containing the respective drug dose was uniformly maintained at 25 ml/kg; controls received in methocel-saline vehicle only. Urine was collected over a 5-hour period from rats housed in metabolism cages (2 rats per cage); one specimen consisted of the pooled sample collected from each cage. The urine volume (ml) excreted by each pair of rats was measured and electrolyte (Na, K, Cl, Ca, P) concentrations were determined with an AAII Autoanalyzer (Technicon) employing established procedures. At the end of the acute (1-day) phase, each pair of rats was returned to a separate cage (2/cage) and provided both food and water. On the following three days, each animal received its respective drug methocel-saline load via a stomach intubation. On the fifth day (after an 18-hour fast) all rats were again treated and placed in metabolism cages (2 rats/cage) for a 5-hour urine collection (chronic-effect: 5-day).

[3] = test system: Spontaneously Hypertensive rat; details: Suzuki et al.; cited from earlier work
[4] = chronic administration (5-days)

| Compound | antihypertensive and diuretic activity (in words) [1] | effects in the spontaneously hypertensive rat (in words) [3] | also measured |
| --- | --- | --- | --- |
| COc1cc2nc(N3CCN(C(=O)c4ccco4)CC3)nc(N)c2cc1OC [Prazosin, prazosin] | a very active antihypertensive agent has antidiuretic activity | – | – |
| COc1ccccc1N1CCN(CCCN2Cc3cc(Cl)c(S(N)(=O)=O)cc3C2=O)CC1 [MJ15037-1A, 6-chloro-2,3-dihydro-2-[3-[4-(2-methoxyphenyl)-1-piperazinyl]propyl]-3-oxo-1H-isoindole-5-sulfonamide] | – | – | natriuretic/diuretic activity (in words) ([2]; acute treatment (1-day)): no natriuretic/diuretic activity; chlorouresis, increase over control [2, 4]: 31%; natriuresis, increase over control [2, 4]: 32% |
| NS(=O)(=O)c1cc2c(cc1Cl)CN(C1CCCCC1)C2=O [chlorexolone] | diuretic and hypertensive activity | favorable effects | – |
| Nc1nc(N)c2nc(-c3ccccc3)c(N)nc2n1 [triamterene] | – | favorable effects | – |
| NS(=O)(=O)c1cc2c(cc1C(F)(F)F)NCNS2(=O)=O [hydroflumethiazide] | – | favorable effects | – |

From patent publication US4585773A, “Isoindolinyl-alkyl-piperazines” (Bristol-Myers Company, priority 1984, dated 1986)
